Legend:
[1] = tested on: bulrush; assay: Test Example 1: herbicidal efficacy on rice paddy weeds pre-emergence; format: in vivo, Scirpus juncoides; conditions: 21 days
Protocol: (§1) A 75 cm^2 plastic pot was filled with soil (clay loam) and planted seeds of bulrush which is a rice paddy weed. After covering the top with 75 cm^3 soil mixed with seeds of false pimpernel, the pot was filled with water so that the soil submerged under 5 cm depth of water. The predetermined effective dosage ([…]) of a formulation containing the compound of the present invention prepared according to Formulation Example 1-4 as an active ingredient was diluted in water and added to the pot water surface dropwise. The pot was kept in a hot house for 21 days and the herbicidal efficacy was investigated. The herbicidal efficacy was evaluated according to the following standard by comparing with untreated control. “-” in the table represents test not done.
(§2) The standard of judgment for herbicidal efficacy (degree of growth inhibition) and phytotoxicity 4 . . . 90%-100% of herbicidal efficacy or phytotoxicity 3 . . . 70%-89% of herbicidal efficacy or phytotoxicity 2 . . . 40%-69% of herbicidal efficacy or phytotoxicity 1 . . . 1%-39% of herbicidal efficacy or phytotoxicity 0 . . . 0% of herbicidal efficacy or phytotoxicity

[2] = tested on: false pimpernel; assay: as above; format: in vivo, Lindernia pyxidaria; conditions: 21 days
Protocol: as §1, §2

[3] = tested on: barnyard glass; assay: Test Example 2: herbicidal efficacy on rice paddy weeds post-emergence; format: in vivo, Echinochloa crus-galli; conditions: 21 days after treatment
Source text: as §2
(§3) A 75 cm^2 plastic pot was filled with soil (clay loam) and planted seeds of barnyard glass and bulrush which is a rice paddy weed. After covering the top with 75 cm^3 soil mixed with seeds of false pimpernel, the pot was filled with water so that the soil submerged under 5 cm depth of water and kept in a hot house. […] The pot was kept in a hot house for 21 days after the treatment and the herbicidal efficacy was investigated and evaluated according to the standard in Test Example 1 by comparing with the untreated control. “-” in the table represents test not done.

[4] = tested on: bulrush; assay: as above; format: in vivo, Scirpus juncoides; conditions: 21 days after treatment
Source text: as §2, §3

[5] = tested on: false pimpernel; assay: as above; format: in vivo, Lindernia pyxidaria; conditions: 21 days after treatment
Source text: as §2, §3

[6] = tested on: paddy rice plant (cultivar: Nihonbare); assay: Test Example 3: phytotoxicity test for transplanted paddy rice plant; format: in vivo; conditions: 21 days after treatment; for Phytotoxicity to paddy rice: transplanted rice
Protocol: as §2
A 75 cm^2 plastic pot was filled with soil (clay loam), and water was added so that the soil was submerged under 5 cm depth of water. Two paddy rice plant (cultivar: Nihonbare) at two leaves stage were transplanted at the depth of 1 cm and kept in a hot house. […] The pot was kept in a hot house for 21 days after the treatment and the phytotoxicity was investigated and evaluated according to the standard in Test Example 1 by comparing with the untreated control. “-” in the table represents test not done.

[7] = dosage 1000 g/ha, post-emergence, one leaf stage
[8] = dosage 1000 g/ha, treated 5 days after transplantation
[9] = dosage 300 g/ha, post-emergence, one leaf stage
[10] = dosage 1000 g/ha active ingredient, vs untreated control
[11] = dosage 1000 g/ha active ingredient, post-emergence treatment at one leaf stage, vs untreated control

CC(C)COC(=O)N(c1ccccc1CN1CC(C)(C2OC2(C)C)OC1=O)S(=O)(=O)C(F)(F)F (stereo not drawn) [Compound 1-177]
Bulrush pre (herbicidal efficacy grade) ([1]; dosage 1000 g/ha): 4 (90%-100% of herbicidal efficacy or phytotoxicity) | False pimpernel pre (herbicidal efficacy grade) ([2]; dosage 1000 g/ha): 4 (90%-100% of herbicidal efficacy or phytotoxicity) | Burnyard grass post (herbicidal efficacy grade) [3, 7]: 4 (90%-100% of herbicidal efficacy or phytotoxicity) | Bulrush post (herbicidal efficacy grade) [4, 7]: 4 (90%-100% of herbicidal efficacy or phytotoxicity) | False pimpernel post (herbicidal efficacy grade) [5, 7]: 4 (90%-100% of herbicidal efficacy or phytotoxicity) | Phytotoxicity to paddy rice [6, 8]: 1 (1%-39% of herbicidal efficacy or phytotoxicity)

CCCC1COC(=O)N1Cc1ccccc1N(C(=O)OCC(C)C)S(=O)(=O)C(F)(F)F (stereo not drawn) [Compound 1-8]
Bulrush pre (herbicidal efficacy grade) ([1]; dosage 300 g/ha): 4 (90%-100% of herbicidal efficacy or phytotoxicity) | False pimpernel pre (herbicidal efficacy grade) ([2]; dosage 300 g/ha): 4 (90%-100% of herbicidal efficacy or phytotoxicity) | Burnyard grass post (herbicidal efficacy grade) [3, 9]: 4 (90%-100% of herbicidal efficacy or phytotoxicity) | Bulrush post (herbicidal efficacy grade) [4, 9]: 4 (90%-100% of herbicidal efficacy or phytotoxicity) | False pimpernel post (herbicidal efficacy grade) [5, 9]: 2 (40%-69% of herbicidal efficacy or phytotoxicity) | Phytotoxicity to paddy rice ([6]; dosage 300 g/ha): 0 (0% of herbicidal efficacy or phytotoxicity)

CC(C)(C)C1(C)CN(Cc2ccccc2NS(=O)(=O)C(F)(F)F)C(=O)O1 (stereo not drawn) [Compound 1-69]
Bulrush pre (herbicidal efficacy grade) ([1]; dosage 300 g/ha): 4 (90%-100% of herbicidal efficacy or phytotoxicity) | False pimpernel pre (herbicidal efficacy grade) ([2]; dosage 300 g/ha): 4 (90%-100% of herbicidal efficacy or phytotoxicity) | Burnyard grass post (herbicidal efficacy grade) [3, 9]: 3 (70%-89% of herbicidal efficacy or phytotoxicity) | Bulrush post (herbicidal efficacy grade) [4, 9]: 4 (90%-100% of herbicidal efficacy or phytotoxicity) | False pimpernel post (herbicidal efficacy grade) [5, 9]: 4 (90%-100% of herbicidal efficacy or phytotoxicity) | Phytotoxicity to paddy rice ([6]; dosage 300 g/ha): 1 (1%-39% of herbicidal efficacy or phytotoxicity)

COCC1(C)CN(Cc2ccccc2NS(=O)(=O)C(F)(F)F)C(=O)O1 (stereo not drawn) [Compound 1-137]
Bulrush pre (herbicidal efficacy grade) ([1]; dosage 300 g/ha): 4 (90%-100% of herbicidal efficacy or phytotoxicity) | False pimpernel pre (herbicidal efficacy grade) ([2]; dosage 300 g/ha): 4 (90%-100% of herbicidal efficacy or phytotoxicity) | Burnyard grass post (herbicidal efficacy grade) [3, 9]: 4 (90%-100% of herbicidal efficacy or phytotoxicity) | Bulrush post (herbicidal efficacy grade) [4, 9]: 4 (90%-100% of herbicidal efficacy or phytotoxicity) | False pimpernel post (herbicidal efficacy grade) [5, 9]: 4 (90%-100% of herbicidal efficacy or phytotoxicity) | Phytotoxicity to paddy rice ([6]; dosage 300 g/ha): 2 (40%-69% of herbicidal efficacy or phytotoxicity)

CC1N(Cc2ccccc2NS(=O)(=O)C(F)(F)F)C(=O)OC1(C)C (stereo not drawn) [Compound 1-96]
Bulrush pre (herbicidal efficacy grade) ([1]; dosage 1000 g/ha): 4 (90%-100% of herbicidal efficacy or phytotoxicity) | False pimpernel pre (herbicidal efficacy grade) ([2]; dosage 1000 g/ha): 4 (90%-100% of herbicidal efficacy or phytotoxicity) | Burnyard grass post (herbicidal efficacy grade) [3, 7]: 4 (90%-100% of herbicidal efficacy or phytotoxicity) | Bulrush post (herbicidal efficacy grade) [4, 7]: 4 (90%-100% of herbicidal efficacy or phytotoxicity) | False pimpernel post (herbicidal efficacy grade) [5, 7]: 4 (90%-100% of herbicidal efficacy or phytotoxicity) | Phytotoxicity to paddy rice [6, 8]: 3 (70%-89% of herbicidal efficacy or phytotoxicity)

CC(C)COC(=O)N(c1ccccc1CN1CC(C(F)(F)F)OC1=O)S(=O)(=O)C(F)(F)F (stereo not drawn) [Compound 1-20]
Bulrush pre (herbicidal efficacy grade) ([1]; dosage 300 g/ha): 4 (90%-100% of herbicidal efficacy or phytotoxicity) | False pimpernel pre (herbicidal efficacy grade) ([2]; dosage 300 g/ha): 3 (70%-89% of herbicidal efficacy or phytotoxicity) | Burnyard grass post (herbicidal efficacy grade) [3, 9]: 4 (90%-100% of herbicidal efficacy or phytotoxicity) | Bulrush post (herbicidal efficacy grade) [4, 9]: 4 (90%-100% of herbicidal efficacy or phytotoxicity) | False pimpernel post (herbicidal efficacy grade) [5, 9]: 3 (70%-89% of herbicidal efficacy or phytotoxicity) | Phytotoxicity to paddy rice ([6]; dosage 300 g/ha): 0 (0% of herbicidal efficacy or phytotoxicity)

COCOc1cccc(CN2CC(C)(C)OC2=O)c1NS(=O)(=O)C(F)(F)F [1-212]
Bulrush pre (herbicidal efficacy grade) [1, 10]: 4 (90%-100% of herbicidal efficacy or phytotoxicity) | False pimpernel pre (herbicidal efficacy grade) [2, 10]: 1 (1%-39% of herbicidal efficacy or phytotoxicity) | Burnyard grass post (herbicidal efficacy grade) [3, 11]: 3 (70%-89% of herbicidal efficacy or phytotoxicity) | Bulrush post (herbicidal efficacy grade) [4, 11]: 2 (40%-69% of herbicidal efficacy or phytotoxicity) | False pimpernel post (herbicidal efficacy grade) [5, 11]: 2 (40%-69% of herbicidal efficacy or phytotoxicity) | Phytotoxicity to paddy rice (grade) ([6]; dosage 1000 g/ha active ingredient, treated 5 days after transplantation, vs untreated control): 3 (70%-89% of herbicidal efficacy or phytotoxicity)

COC(=O)N(c1ccccc1CN1CC2(CCCC2C)OC1=O)S(=O)(=O)C(F)(F)F (stereo not drawn) [Compound 1-162]
Bulrush pre (herbicidal efficacy grade) ([1]; dosage 1000 g/ha): 4 (90%-100% of herbicidal efficacy or phytotoxicity) | False pimpernel pre (herbicidal efficacy grade) ([2]; dosage 1000 g/ha): 4 (90%-100% of herbicidal efficacy or phytotoxicity) | Burnyard grass post (herbicidal efficacy grade) [3, 7]: 4 (90%-100% of herbicidal efficacy or phytotoxicity) | Bulrush post (herbicidal efficacy grade) [4, 7]: 4 (90%-100% of herbicidal efficacy or phytotoxicity) | False pimpernel post (herbicidal efficacy grade) [5, 7]: 4 (90%-100% of herbicidal efficacy or phytotoxicity) | Phytotoxicity to paddy rice [6, 8]: 1 (1%-39% of herbicidal efficacy or phytotoxicity)

CC1CCCC12CN(Cc1ccccc1NS(=O)(=O)C(F)(F)F)C(=O)O2 (stereo not drawn) [Compound 1-160]
Bulrush pre (herbicidal efficacy grade) ([1]; dosage 300 g/ha): 4 (90%-100% of herbicidal efficacy or phytotoxicity) | False pimpernel pre (herbicidal efficacy grade) ([2]; dosage 300 g/ha): 4 (90%-100% of herbicidal efficacy or phytotoxicity) | Burnyard grass post (herbicidal efficacy grade) [3, 9]: 4 (90%-100% of herbicidal efficacy or phytotoxicity) | Bulrush post (herbicidal efficacy grade) [4, 9]: 4 (90%-100% of herbicidal efficacy or phytotoxicity) | False pimpernel post (herbicidal efficacy grade) [5, 9]: 4 (90%-100% of herbicidal efficacy or phytotoxicity) | Phytotoxicity to paddy rice ([6]; dosage 300 g/ha): 1 (1%-39% of herbicidal efficacy or phytotoxicity)

CC1(C2CCCCC2)CN(Cc2ccccc2NS(=O)(=O)C(F)(F)F)C(=O)O1 (stereo not drawn) [Compound 1-154]
Bulrush pre (herbicidal efficacy grade) ([1]; dosage 300 g/ha): 4 (90%-100% of herbicidal efficacy or phytotoxicity) | False pimpernel pre (herbicidal efficacy grade) ([2]; dosage 300 g/ha): 4 (90%-100% of herbicidal efficacy or phytotoxicity) | Burnyard grass post (herbicidal efficacy grade) [3, 9]: 1 (1%-39% of herbicidal efficacy or phytotoxicity) | Bulrush post (herbicidal efficacy grade) [4, 9]: 4 (90%-100% of herbicidal efficacy or phytotoxicity) | False pimpernel post (herbicidal efficacy grade) [5, 9]: 4 (90%-100% of herbicidal efficacy or phytotoxicity) | Phytotoxicity to paddy rice ([6]; dosage 300 g/ha): 1 (1%-39% of herbicidal efficacy or phytotoxicity)

CC1(C)OC(=O)N(Cc2ccccc2NS(=O)(=O)C(F)(F)F)C1(C)C [Compound 1-73]
Bulrush pre (herbicidal efficacy grade) ([1]; dosage 1000 g/ha): 4 (90%-100% of herbicidal efficacy or phytotoxicity) | False pimpernel pre (herbicidal efficacy grade) ([2]; dosage 1000 g/ha): 4 (90%-100% of herbicidal efficacy or phytotoxicity) | Burnyard grass post (herbicidal efficacy grade) [3, 7]: 4 (90%-100% of herbicidal efficacy or phytotoxicity) | Bulrush post (herbicidal efficacy grade) [4, 7]: 4 (90%-100% of herbicidal efficacy or phytotoxicity) | False pimpernel post (herbicidal efficacy grade) [5, 7]: 4 (90%-100% of herbicidal efficacy or phytotoxicity) | Phytotoxicity to paddy rice [6, 8]: 4 (90%-100% of herbicidal efficacy or phytotoxicity)

CCC1(C)CN(Cc2ccccc2NS(=O)(=O)C(F)(F)F)C(=S)O1 (stereo not drawn) [Compound 1-180]
Bulrush pre (herbicidal efficacy grade) ([1]; dosage 1000 g/ha): 4 (90%-100% of herbicidal efficacy or phytotoxicity) | False pimpernel pre (herbicidal efficacy grade) ([2]; dosage 1000 g/ha): 4 (90%-100% of herbicidal efficacy or phytotoxicity) | Burnyard grass post (herbicidal efficacy grade) [3, 7]: 4 (90%-100% of herbicidal efficacy or phytotoxicity) | Bulrush post (herbicidal efficacy grade) [4, 7]: 4 (90%-100% of herbicidal efficacy or phytotoxicity) | False pimpernel post (herbicidal efficacy grade) [5, 7]: 4 (90%-100% of herbicidal efficacy or phytotoxicity) | Phytotoxicity to paddy rice [6, 8]: 2 (40%-69% of herbicidal efficacy or phytotoxicity)

O=C1OCCN1Cc1ccccc1NS(=O)(=O)C(F)(F)F [Compound 1-1]
Bulrush pre (herbicidal efficacy grade) ([1]; dosage 1000 g/ha): 4 (90%-100% of herbicidal efficacy or phytotoxicity) | False pimpernel pre (herbicidal efficacy grade) ([2]; dosage 1000 g/ha): 4 (90%-100% of herbicidal efficacy or phytotoxicity) | Burnyard grass post (herbicidal efficacy grade) [3, 7]: 4 (90%-100% of herbicidal efficacy or phytotoxicity) | Bulrush post (herbicidal efficacy grade) [4, 7]: 4 (90%-100% of herbicidal efficacy or phytotoxicity) | False pimpernel post (herbicidal efficacy grade) [5, 7]: 4 (90%-100% of herbicidal efficacy or phytotoxicity) | Phytotoxicity to paddy rice [6, 8]: 1 (1%-39% of herbicidal efficacy or phytotoxicity)
